{
  "source": "paper PMC7693203",
  "about": "(Epilepsia, 2020)",
  "key": {"[1]": {"settings": "trial 17074; after CBD alone, during RIF treatment, or after CBD and RIF; of 16"}, "CYP3A4 [2]": {"target": "T1, CYP3A4 (Homo sapiens, UniProt P08684)", "T1 sequence (P08684 whole entry)": "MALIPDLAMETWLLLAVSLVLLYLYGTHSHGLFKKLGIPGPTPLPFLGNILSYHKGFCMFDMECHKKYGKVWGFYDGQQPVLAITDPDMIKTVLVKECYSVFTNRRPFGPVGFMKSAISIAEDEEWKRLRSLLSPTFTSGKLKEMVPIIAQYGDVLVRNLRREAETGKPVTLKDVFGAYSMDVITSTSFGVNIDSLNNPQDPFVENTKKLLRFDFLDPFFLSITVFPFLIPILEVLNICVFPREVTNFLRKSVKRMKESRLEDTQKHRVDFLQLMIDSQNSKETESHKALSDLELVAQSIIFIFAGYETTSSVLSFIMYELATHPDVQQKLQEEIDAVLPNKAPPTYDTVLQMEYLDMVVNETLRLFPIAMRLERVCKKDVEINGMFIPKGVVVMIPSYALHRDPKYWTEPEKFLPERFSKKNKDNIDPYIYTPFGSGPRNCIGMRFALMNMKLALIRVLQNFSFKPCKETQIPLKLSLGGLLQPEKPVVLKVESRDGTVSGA"}, "CYP3A4 [3]": {"target": "T1, CYP3A4", "assay": "clinical", "settings": "in vivo"}, "[4]": {"settings": "healthy volunteers, cited from earlier work; for increase in AUCtau with concomitant CBD / increase in C max with concomitant CBD: steady-state ASD"}, "[5]": {"settings": "patients with epilepsy on stable CLB; result in words; cited from earlier work"}, "[6]": {"settings": "cited from earlier work; for decrease in AUCtau with concomitant CBD / decrease in C max with concomitant CBD: patients with epilepsy on stable VPA"}, "[7]": {"settings": "cited from earlier work"}, "CYP3A4 [8]": {"target": "T1, CYP3A4", "settings": "result in words; cited from earlier work"}, "CYP2C19": {"target": "CYP2C19 (Homo sapiens, UniProt P33261)", "sequence (P33261 whole entry)": "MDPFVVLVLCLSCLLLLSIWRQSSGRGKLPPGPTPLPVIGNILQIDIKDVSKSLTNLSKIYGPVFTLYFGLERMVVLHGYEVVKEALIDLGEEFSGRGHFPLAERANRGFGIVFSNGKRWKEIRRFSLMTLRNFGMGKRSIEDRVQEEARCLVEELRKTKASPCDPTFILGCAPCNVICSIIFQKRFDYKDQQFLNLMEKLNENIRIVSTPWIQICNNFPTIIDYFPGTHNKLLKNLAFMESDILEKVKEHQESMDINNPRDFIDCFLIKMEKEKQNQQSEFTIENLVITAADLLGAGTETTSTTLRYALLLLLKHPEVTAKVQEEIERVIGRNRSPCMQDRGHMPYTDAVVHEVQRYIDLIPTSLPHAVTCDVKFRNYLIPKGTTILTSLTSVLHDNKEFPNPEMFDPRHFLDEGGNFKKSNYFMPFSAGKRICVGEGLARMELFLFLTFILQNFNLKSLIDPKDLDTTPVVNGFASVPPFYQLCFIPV", "settings": "result in words; cited from earlier work"}},
  "note": "Read-outs that look alike come from different tables or passages of the source. Marks after values point to notes of the source that are not given here.",
  "data": [
    {"smiles": "CO[C@H]1/C=C/O[C@@]2(C)Oc3c(C)c(O)c4c(O)c(c(/C=N/N5CCN(C)CC5)c(O)c4c3C2=O)NC(=O)/C(C)=C\\C=C\\[C@H](C)[C@H](O)[C@@H](C)[C@@H](O)[C@@H](C)[C@H](OC(C)=O)[C@@H]1C", "note": "[RIF, rifampicin]", "values": [
      {"measurement": "healthy volunteers reporting AEs", "setting": "[1]", "result": 81, "unit": "%"}
    ]},
    {"smiles": "Cc1ncc2n1-c1ccc(Cl)cc1C(c1ccccc1F)=NC2", "note": "[MDZ, midazolam]", "values": [
      {"measurement": "t max", "setting": "CYP3A4 [2]; human, in vivo", "result": "1.00 (0.5‐3.00) h"},
      {"measurement": "t ½", "setting": "CYP3A4 [2]; human, in vivo", "result": "4.53 (14.5) h"},
      {"measurement": "t max", "setting": "CYP3A4 [3]; t max", "result": 0.5, "unit": "h"},
      {"measurement": "half-life", "setting": "CYP3A4 [3]; t ½", "result": 4.99, "unit": "h"}
    ]},
    {"smiles": "CN1C(=O)CC(=O)N(c2ccccc2)c2cc(Cl)ccc21", "note": "[CLB, clobazam]", "values": [
      {"measurement": "increase in AUCtau with concomitant CBD", "setting": "[4]", "result": 21, "unit": "%"},
      {"measurement": "increase in C max with concomitant CBD", "setting": "[4]", "result": 20, "unit": "%"},
      {"measurement": "effect of concomitant CBD on exposure", "setting": "[5]", "result": "no effect"}
    ]},
    {"smiles": "C=CCC(CCC)C(=O)O", "note": "(stereo not shown) [4‐ene‐VPA, 2‐propyl‐4‐pentenoic acid]", "values": [
      {"measurement": "decrease in AUCtau with concomitant CBD", "setting": "[6]", "result": 30, "unit": "%"},
      {"measurement": "decrease in C max with concomitant CBD", "setting": "[6]", "result": 23, "unit": "%"}
    ]},
    {"smiles": "CC(C)(C)C(O)/C=C/c1ccc2c(c1)OCO2", "note": "(stereo not shown) [STP, stiripentol]", "values": [
      {"measurement": "Plasma protein binding (PPB)", "setting": "[7]", "result": 96.1, "unit": "%"},
      {"measurement": "inhibition of CYP3A4", "setting": "CYP3A4 [8]", "result": "potent inhibitor"},
      {"measurement": "increase in AUCtau with concomitant CBD", "setting": "[4]", "result": 55, "unit": "%"},
      {"measurement": "increase in C max with concomitant CBD", "setting": "[4]", "result": 28, "unit": "%"},
      {"measurement": "inhibition of CYP2C19", "setting": "CYP2C19", "result": "potent inhibitor"},
      {"measurement": "increase in AUCtau with concomitant CBD", "setting": "[6]; patients with epilepsy", "result": 30, "unit": "%"},
      {"measurement": "increase in C max with concomitant CBD", "setting": "[6]; patients with epilepsy", "result": 17, "unit": "%"}
    ]},
    {"smiles": "OCc1ncc2n1-c1ccc(Cl)cc1C(c1ccccc1F)=NC2", "note": "[1′‐OH‐MDZ, 1′‐hydroxymidazolam]", "values": [
      {"measurement": "t max", "setting": "CYP3A4 [2]; MDZ + CBD (steady-state CBD 750 mg BID), median (min‐max)", "result": "3.00 (0.50‐5.02) ^e h"},
      {"measurement": "t ½", "setting": "CYP3A4 [2]; MDZ + placebo, MDZ 2.5 mg single dose, arithmetic mean (CV%)", "result": "6.11 (39.0) h"},
      {"measurement": "t max", "setting": "CYP3A4 [2]; MDZ + placebo, median (min‐max)", "result": "0.50 (0.48‐1.55) ^d h"},
      {"measurement": "increase in AUCtau with concomitant CBD", "setting": "CYP3A4 [2]; steady-state CBD", "result": 68, "unit": "%"},
      {"measurement": "increase in C max with concomitant CBD", "setting": "CYP3A4 [2]; steady-state CBD", "result": 12, "unit": "%"},
      {"measurement": "increase in t ½ with concomitant CBD", "setting": "CYP3A4 [2]; steady-state CBD", "result": 35, "unit": "%"},
      {"measurement": "delay to t max, median of differences", "setting": "CYP3A4 [2]; with concomitant CBD, 90% CI = 1.00‐2.52", "result": 2.25, "unit": "h"}
    ]},
    {"smiles": "CCCC(CCC)C(=O)O", "note": "[VPA, valproate]", "values": [
      {"measurement": "PPB when VPA and CBD are combined in vitro", "setting": "[7]; result in words", "result": "not affected"},
      {"measurement": "effect of concomitant CBD on exposure", "setting": "[4]; result in words", "result": "no effect"},
      {"measurement": "decrease in AUCtau with concomitant CBD", "setting": "[6]", "result": 17, "unit": "%"},
      {"measurement": "decrease in C max with concomitant CBD", "setting": "[6]", "result": 13, "unit": "%"}
    ]}
  ]
}
